One molecule from patent US9422267B2, “Fused pyrimidine compounds and use thereof” (Medivation Technologies, Inc., priority 2012, dated 2016) can be followed below.

Type in all cases: biochemical
The target in experiment [1] is LCK (Homo sapiens, UniProt P06239). The experiment is described as follows: Caliper kinase profiling: LCK.
The target of experiment [2] is T1, BMX (Homo sapiens, UniProt P51813).
T1 sequence (P51813 1-675): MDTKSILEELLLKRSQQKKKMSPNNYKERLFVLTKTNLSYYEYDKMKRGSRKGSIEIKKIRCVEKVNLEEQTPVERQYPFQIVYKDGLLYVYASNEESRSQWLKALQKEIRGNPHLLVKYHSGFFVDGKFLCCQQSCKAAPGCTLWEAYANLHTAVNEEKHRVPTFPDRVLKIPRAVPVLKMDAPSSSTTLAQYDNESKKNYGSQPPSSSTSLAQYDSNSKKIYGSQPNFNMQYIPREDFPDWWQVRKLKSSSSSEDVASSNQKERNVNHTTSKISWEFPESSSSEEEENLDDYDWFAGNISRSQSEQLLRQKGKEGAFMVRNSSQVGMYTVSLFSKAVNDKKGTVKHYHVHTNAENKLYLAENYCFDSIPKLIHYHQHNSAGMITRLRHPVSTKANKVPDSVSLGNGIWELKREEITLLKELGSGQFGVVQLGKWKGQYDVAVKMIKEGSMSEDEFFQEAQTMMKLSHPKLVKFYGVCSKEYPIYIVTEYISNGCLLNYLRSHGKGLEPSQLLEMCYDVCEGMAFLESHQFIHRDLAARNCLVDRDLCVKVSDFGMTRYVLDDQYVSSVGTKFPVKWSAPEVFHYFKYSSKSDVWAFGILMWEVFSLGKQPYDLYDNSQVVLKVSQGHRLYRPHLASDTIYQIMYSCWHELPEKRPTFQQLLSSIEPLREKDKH
Nature of the experiment: Caliper kinase profiling: BMX.

The target in experiment [3] is RET (Homo sapiens, UniProt P07949). The experiment is described as follows: Caliper kinase profiling: RET.
Experiment [4] has as its target T2, NuaK1 (Homo sapiens, UniProt O60285).
T2 sequence (O60285 1-661): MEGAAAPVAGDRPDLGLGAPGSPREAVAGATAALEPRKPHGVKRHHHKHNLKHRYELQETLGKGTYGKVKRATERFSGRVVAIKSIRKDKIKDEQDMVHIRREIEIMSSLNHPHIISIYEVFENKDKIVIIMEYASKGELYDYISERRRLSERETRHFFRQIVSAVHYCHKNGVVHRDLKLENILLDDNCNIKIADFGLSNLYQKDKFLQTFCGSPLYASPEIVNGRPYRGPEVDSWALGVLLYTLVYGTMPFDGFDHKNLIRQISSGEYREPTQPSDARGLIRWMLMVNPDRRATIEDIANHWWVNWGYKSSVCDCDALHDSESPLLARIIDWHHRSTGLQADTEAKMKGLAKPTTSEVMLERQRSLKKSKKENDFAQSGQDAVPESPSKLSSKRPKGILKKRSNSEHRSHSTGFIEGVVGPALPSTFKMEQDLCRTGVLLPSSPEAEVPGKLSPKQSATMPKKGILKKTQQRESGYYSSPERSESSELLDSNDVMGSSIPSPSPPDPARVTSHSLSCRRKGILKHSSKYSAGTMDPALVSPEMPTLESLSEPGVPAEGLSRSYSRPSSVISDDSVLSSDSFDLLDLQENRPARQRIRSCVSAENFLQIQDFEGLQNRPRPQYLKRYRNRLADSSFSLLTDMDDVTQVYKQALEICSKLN
The experiment is described as follows: Caliper kinase profiling: NuaK1.

Experiment [5] has as its target LTK (Homo sapiens, UniProt P29376). Nature of the experiment: Caliper kinase profiling: LTK. Conditions: read-out: Average % Inh @ 1 μM.
The mark [6] stands for this setting: 10 nM, read-out: Average % Inh @ 10 nM.
[7] abbreviates: 100 nM, read-out: Average % Inh @ 100 nM.
Setting [8] is: 1 μM, read-out: Average % Inh @ 1 μM.

LCK, sequence (P06239 whole entry): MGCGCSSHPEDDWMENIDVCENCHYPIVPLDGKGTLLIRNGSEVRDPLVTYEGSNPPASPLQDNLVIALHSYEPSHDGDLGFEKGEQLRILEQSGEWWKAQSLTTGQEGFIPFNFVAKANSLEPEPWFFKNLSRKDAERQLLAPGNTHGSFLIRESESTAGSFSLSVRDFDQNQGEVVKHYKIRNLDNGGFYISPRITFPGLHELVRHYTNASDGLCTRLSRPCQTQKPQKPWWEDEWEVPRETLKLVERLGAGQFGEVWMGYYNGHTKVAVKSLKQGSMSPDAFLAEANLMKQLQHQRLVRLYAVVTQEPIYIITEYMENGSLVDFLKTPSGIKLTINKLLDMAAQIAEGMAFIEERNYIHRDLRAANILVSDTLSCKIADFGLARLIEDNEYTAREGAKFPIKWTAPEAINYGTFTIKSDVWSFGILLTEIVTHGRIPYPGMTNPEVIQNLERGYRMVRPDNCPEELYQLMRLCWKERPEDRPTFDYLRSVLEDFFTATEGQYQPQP
RET, sequence (P07949 29-1114): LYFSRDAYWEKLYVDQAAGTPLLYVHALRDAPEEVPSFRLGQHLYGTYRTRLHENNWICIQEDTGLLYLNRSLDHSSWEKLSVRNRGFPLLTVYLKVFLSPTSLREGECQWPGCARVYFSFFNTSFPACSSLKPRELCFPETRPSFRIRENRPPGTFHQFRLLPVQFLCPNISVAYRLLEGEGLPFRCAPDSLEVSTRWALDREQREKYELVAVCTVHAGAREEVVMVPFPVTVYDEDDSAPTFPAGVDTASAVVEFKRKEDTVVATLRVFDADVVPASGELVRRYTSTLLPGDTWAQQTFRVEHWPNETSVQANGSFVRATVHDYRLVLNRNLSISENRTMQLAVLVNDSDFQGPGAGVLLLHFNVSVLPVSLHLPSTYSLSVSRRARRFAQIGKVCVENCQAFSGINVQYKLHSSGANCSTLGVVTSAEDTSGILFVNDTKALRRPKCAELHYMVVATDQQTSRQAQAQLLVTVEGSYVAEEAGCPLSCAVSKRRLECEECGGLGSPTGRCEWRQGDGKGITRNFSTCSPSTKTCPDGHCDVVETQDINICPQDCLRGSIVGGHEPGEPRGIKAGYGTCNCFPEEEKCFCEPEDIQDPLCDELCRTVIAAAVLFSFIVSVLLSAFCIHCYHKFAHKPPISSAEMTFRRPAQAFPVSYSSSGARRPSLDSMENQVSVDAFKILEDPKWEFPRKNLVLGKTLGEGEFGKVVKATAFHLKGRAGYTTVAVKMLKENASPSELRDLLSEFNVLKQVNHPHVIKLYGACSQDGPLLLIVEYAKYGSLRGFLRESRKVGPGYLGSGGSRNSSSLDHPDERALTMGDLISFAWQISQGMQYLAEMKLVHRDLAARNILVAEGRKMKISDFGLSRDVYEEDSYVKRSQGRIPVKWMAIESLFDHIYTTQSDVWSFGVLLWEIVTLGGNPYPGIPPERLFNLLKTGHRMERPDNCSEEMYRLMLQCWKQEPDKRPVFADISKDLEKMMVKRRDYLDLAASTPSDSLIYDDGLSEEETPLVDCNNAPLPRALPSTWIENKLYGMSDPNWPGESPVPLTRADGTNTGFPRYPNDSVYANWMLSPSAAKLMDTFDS
LTK, sequence (P29376 17-864): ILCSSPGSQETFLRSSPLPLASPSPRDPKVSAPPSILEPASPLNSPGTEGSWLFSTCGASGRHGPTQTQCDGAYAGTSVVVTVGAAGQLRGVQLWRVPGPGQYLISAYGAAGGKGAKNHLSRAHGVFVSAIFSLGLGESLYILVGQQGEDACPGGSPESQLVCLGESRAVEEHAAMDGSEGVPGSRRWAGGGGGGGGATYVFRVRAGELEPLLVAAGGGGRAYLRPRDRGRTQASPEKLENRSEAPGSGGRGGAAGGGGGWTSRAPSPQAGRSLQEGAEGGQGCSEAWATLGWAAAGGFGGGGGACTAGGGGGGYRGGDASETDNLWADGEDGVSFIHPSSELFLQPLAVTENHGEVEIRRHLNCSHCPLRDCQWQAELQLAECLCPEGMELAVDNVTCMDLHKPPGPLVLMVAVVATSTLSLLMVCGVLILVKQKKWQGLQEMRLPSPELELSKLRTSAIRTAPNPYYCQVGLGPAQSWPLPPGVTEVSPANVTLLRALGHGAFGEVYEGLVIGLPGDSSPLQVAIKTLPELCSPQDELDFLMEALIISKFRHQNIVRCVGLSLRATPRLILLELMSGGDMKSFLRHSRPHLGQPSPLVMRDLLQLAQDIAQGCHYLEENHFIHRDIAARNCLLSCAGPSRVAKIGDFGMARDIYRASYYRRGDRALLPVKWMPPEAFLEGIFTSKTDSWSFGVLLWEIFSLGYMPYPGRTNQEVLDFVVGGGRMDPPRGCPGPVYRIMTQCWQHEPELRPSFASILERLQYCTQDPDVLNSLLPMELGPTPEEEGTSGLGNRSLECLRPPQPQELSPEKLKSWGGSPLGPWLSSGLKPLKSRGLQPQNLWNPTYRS

In the case of `O=C(Nc1ccc(F)nc1)C1CCCN1c1nc2c(c(Nc3cc(C4CC4)[nH]n3)n1)CCC2` (single isomer, unassigned) [Compound 2b, 1-(4-(5-cyclopropyl-1H-pyrazol-3-ylamino)-6,7-dihydro-5H-cyclopenta[d]pyrimidin-2-yl)-N-(6-fluoropyridin-3-yl)pyrrolidine-2-carboxamide], the inhibition at 0.01 µM in experiment [1] (setting [6]) was less than 39%; in experiment [2] (setting [6]) it was less than 39%; in experiment [3] (setting [6]), less than 39%; in experiment [4] (NuaK1, 10 nM, read-out: Average % Inh @ 10 nM), less than 39%. The inhibition at 0.1 µM in experiment [1] (setting [7]) is less than 39%; in experiment [2] (setting [7]), less than 39%; in experiment [3] (setting [7]) it was 40 to 59%; in experiment [4] (NuaK1, 100 nM, read-out: Average % Inh @ 100 nM) it was 40 to 59%. In addition, the inhibition at 1 µM is greater than 60% in experiment [1] (setting [8]); 40 to 59% in experiment [2] (setting [8]); greater than 60% in experiment [3] (setting [8]); greater than 60% in experiment [4] (NuaK1, 1 μM, read-out: Average % Inh @ 1 μM); greater than 60% in experiment [5].
